Measured values: patent US20090143279A1 (priority 2007, published 2009)
Like-named read-outs stand apart in the source and are kept apart here. Where a SMILES comes first, the peptide text is derived from it. Bridges are numbered along the chain shown (N, C = ends). [ ]: non-standard residue; d: D form. The star is where a group is joined. Ileψ(thiazoline)Cys = CC[C@H](C)[C@H](N)C1=N[C@H](C(=O)*)CS1; dOrn = NCCC[C@@H](N)C(=O)O

Columns and labels:
[1] = tested on: C2C12 myotubes; conditions: for Viability (composite Z-score): normalized score vs mock-treated (DMSO) wells
[2] = tested on: cytochrome c; assay type: cell-based, mouse; conditions: for cyt c (composite Z-score): normalized score vs mock-treated (DMSO) wells
[3] = tested on: nuOXPHOS transcripts; assay type: cell-based, mouse; conditions: for nucOX (composite Z-score): normalized score vs mock-treated (DMSO) wells
[4] = tested on: cellular dehydrogenase activity; conditions: for MTT (composite Z-score): normalized score vs mock-treated (DMSO) wells
[5] = tested on: mtOXPHOS transcripts; assay type: cell-based, mouse; conditions: for mitoOX (composite Z-score): normalized score vs mock-treated (DMSO) wells
[6] = tested on: reactive oxygen species; assay type: cell-based, mouse; conditions: for ROS (composite Z-score): normalized score vs mock-treated (DMSO) wells
[7] = tested on: mitochondrial membrane potential; assay type: cell-based, mouse; conditions: for ΔΨm (composite Z-score): normalized score vs mock-treated (DMSO) wells
[8] = tested on: OXPHOS gene expression; assay type: cell-based, mouse; conditions: for GE-HTS (composite Z-score): normalized score vs mock-treated (DMSO) wells
[9] = normalized composite Z-score vs mock-treated (DMSO) wells, Conc 20 μM
[10] = Table 7, C2C12 myotubes, 48 h, composite Z-score
[11] = composite Z-score vs DMSO wells, Conc 20 μM
[12] = composite Z-score vs DMSO, Conc 20 μM
[13] = 20 μM, composite Z-score vs DMSO
[14] = 25.78 μM, composite Z-score vs DMSO
[15] = Table 4, C2C12 myotubes, 48 h, composite Z-score
[16] = composite Z-score vs mock-treated (DMSO) wells, concentration of each compound in μM
[17] = composite Z-score vs mock-treated (DMSO) wells, Conc 20 μM

cytochrome c, sequence (P62897 whole entry): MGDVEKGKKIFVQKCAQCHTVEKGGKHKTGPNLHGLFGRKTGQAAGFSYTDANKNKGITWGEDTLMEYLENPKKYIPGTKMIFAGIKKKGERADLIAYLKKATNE

Compound: COc1cc2c(cc1OC)[C@@H]1C(=O)c3ccc4oc(C(C)C)cc4c3O[C@@H]1CO2 [isorotenone, reference compound]
- Viability [1, 9]: −1.954
- cyt c [2, 9]: −3.397
- nucOXPHOS Z [3, 10]: −3.02
- nucOX [3, 9]: −3.017
- MTT [4, 9]: −4.373
- mito-OXPHOS Z [5, 10]: −4.57
- mitoOX [5, 9]: −4.571
- ROS [6, 9]: −0.782
- ΔΨm [7, 9]: −1.329
- GE-HTS [8, 9]: −3.751

Compound: O=c1cc(-c2ccccc2)oc2cc(O)cc(O)c12 [chrysin]
- Viability [1, 11]: −0.802
- cyt c [2]: 0.920
- cyt c [2, 11]: 0.655
- nucOX [3, 11]: 0.071
- MTT [4, 11]: −1.566
- mitoOX [5, 11]: −0.552
- ROS [6, 11]: 0.949
- ΔΨm [7, 11]: −0.941
- GE-HTS [8, 11]: −0.137

Compound: Cc1ccc(/N=C/N(C)/C=N/c2ccc(C)cc2C)c(C)c1 [amitraz]
- Viability [1, 12]: −1.025
- cyt c [2, 12]: 0.292
- nucOX [3, 12]: −0.299
- MTT [4, 12]: −1.572
- mitoOX [5, 12]: −0.814
- ROS [6, 12]: 0.867
- ΔΨm [7, 12]: −0.741
- GE-HTS [8, 12]: −0.526

Compound: COC(=O)C1=CCCN(C)C1 [arecoline]
- Viability [1, 13]: 0.018
- Viability [1, 14]: 0.481
- cyt c [2, 13]: 0.839
- cyt c [2, 14]: 0.503
- nucOX [3, 13]: −0.261
- nucOX [3, 14]: 0.385
- MTT [4, 13]: −0.452
- MTT [4, 14]: −0.607
- mitoOX [5, 13]: −1.072
- mitoOX [5, 14]: −0.513
- ROS [6, 13]: −1.032
- ROS [6, 14]: −1.084
- ΔΨm [7, 13]: −0.451
- ΔΨm [7, 14]: −0.281
- GE-HTS [8, 13]: −0.545
- GE-HTS [8, 14]: 0.098

Compound: O=c1cc(-c2cc(O)c(O)c(O)c2)oc2cc(O)cc(O)c12 [hieracin, reference compound]
- Viability (composite Z-score) ([1]; Conc 20 μM): 1.425
- Viability [1, 15]: 1.425
- cyt c (composite Z-score) ([2]; Conc 20 μM): 0.057
- nucOX (composite Z-score) ([3]; Conc 20 μM): −0.421
- MTT (composite Z-score) ([4]; Conc 20 μM): −0.557
- MTT [4, 15]: −0.557
- mitoOX (composite Z-score) ([5]; Conc 20 μM): −1.009
- ROS (composite Z-score) ([6]; Conc 20 μM): −0.329
- ROS [6, 15]: −0.329
- ΔΨm (composite Z-score) ([7]; Conc 20 μM): −1.902
- ΔΨm ([7]; Table 4, C2C12 myotubes, 48 h, JC-1, composite Z-score): −1.902
- GE-HTS (composite Z-score) ([8]; Conc 20 μM): −0.648

Compound: COc1cc(/C=C/C(=O)O)cc(OC)c1OC [sinapic acid methyl ether]
- Viability [1]: −0.934
- cyt c [2]: 0.207
- nucOX [3]: −1.058
- MTT [4]: −0.736
- mitoOX [5]: −1.015
- ROS [6]: 0.722
- ΔΨm [7]: −0.716
- GE-HTS [8]: −1.103

Compound: CC(=O)Oc1cccc2c1C(=O)c1c(OC(C)=O)cc(C(=O)O)cc1C2=O [diacerin]
- Viability (composite Z-score) ([1]; Conc 20 μM): −0.692
- cyt c (composite Z-score) ([2]; Conc 20 μM): 0.389
- nucOX (composite Z-score) ([3]; Conc 20 μM): −0.509
- MTT (composite Z-score) ([4]; Conc 20 μM): −0.608
- mitoOX (composite Z-score) ([5]; Conc 20 μM): −0.239
- ROS (composite Z-score) ([6]; Conc 20 μM): 0.228
- ΔΨm (composite Z-score) ([7]; Conc 20 μM): 0.195
- GE-HTS (composite Z-score) ([8]; Conc 20 μM): −0.446

Compound: CO[C@H]1[C@H](O)[C@H](O[C@H]2CC[C@@]3(C=O)[C@H](CC[C@@H]4[C@@H]3CC[C@]3(C)[C@@H](C5=CC(=O)OC5)CC[C@]43O)C2)O[C@@H](C)[C@@H]1O [peruvoside]
- Viability [1, 11]: 0.426
- cyt c [2, 11]: 0.075
- nucOX [3, 11]: 0.297
- MTT [4, 11]: −1.190
- mitoOX [5, 11]: 0.324
- ROS [6, 11]: 0.997
- ΔΨm [7, 11]: −0.906
- GE-HTS [8, 11]: 0.328

Compound: O=C(O[C@@H]1Cc2c(O)cc(O)cc2O[C@@H]1c1cc(O)c(O)c(O)c1-c1c([C@H]2Oc3cc(O)cc(O)c3C[C@H]2O)cc(O)c(O)c1O)c1cc(O)c(O)c(O)c1 [2′,2′-bisepigallocatechin monogallate]
- Viability (composite Z-score) ([1]; Conc 20 μM): 0.442
- cyt c (composite Z-score) ([2]; Conc 20 μM): 0.246
- nucOX (composite Z-score) ([3]; Conc 20 μM): −0.545
- MTT (composite Z-score) ([4]; Conc 20 μM): −1.318
- mitoOX (composite Z-score) ([5]; Conc 20 μM): −0.575
- ROS (composite Z-score) ([6]; Conc 20 μM): 0.428
- ΔΨm (composite Z-score) ([7]; Conc 20 μM): −2.350
- GE-HTS (composite Z-score) ([8]; Conc 20 μM): −0.573

Compound: CC[C@H](C)[C@H](N)C1=N[C@H](C(=O)N[C@@H](CC(C)C)C(=O)N[C@H](CCC(=O)O)C(=O)N[C@H](C(=O)N[C@H]2CCCCNC(=O)[C@H](CC(N)=O)NC(=O)[C@@H](CC(=O)O)NC(=O)[C@H](Cc3cnc[nH]3)NC(=O)[C@@H](Cc3ccccc3)NC(=O)[C@H]([C@@H](C)CC)NC(=O)[C@@H](CCCN)NC2=O)[C@@H](C)CC)CS1 [bacitracin] ({Ileψ(thiazoline)Cys}-L[dE]IK[dOrn]I[dF]H[dD]N; lactam 4-C)
- Viability [1, 13]: −0.312
- Viability [1, 16]: −0.938
- cyt c [2, 13]: 0.305
- cyt c [2, 16]: −0.806
- nucOX [3, 13]: 1.374
- nucOX [3, 16]: −0.736
- MTT [4, 13]: −0.826
- MTT [4, 16]: −0.310
- mitoOX [5, 13]: 0.798
- mitoOX [5, 16]: −0.189
- ROS [6, 13]: 1.177
- ROS [6, 16]: 0.105
- ΔΨm [7, 13]: −0.113
- ΔΨm [7, 16]: −0.214
- GE-HTS [8, 13]: 1.271
- GE-HTS [8, 16]: −0.592

Compound: 3alpha-hydroxy-3-deoxyangolensic acid methyl ester
- Viability [1, 17]: 0.949
- cyt c [2, 17]: −0.141
- nucOX [3, 17]: −0.474
- MTT [4, 17]: −1.268
- mitoOX [5, 17]: −0.377
- ROS [6, 17]: 0.799
- ΔΨm [7, 17]: −0.043
- GE-HTS [8, 17]: −0.456

Compound: C=CC(C1=CC(=O)C(OC)=CC1=O)c1ccc(O)cc1 (stereo not shown) [4-methoxy-4′-hydroxy-dalbergione]
- Viability [1, 17]: 1.548
- cyt c [2, 17]: 0.803
- nucOX [3, 17]: −1.406
- MTT [4, 17]: −0.877
- mitoOX [5, 17]: −1.071
- ROS [6, 17]: 0.639
- ΔΨm [7, 17]: 0.406
- GE-HTS [8, 17]: −1.401

Compound: COc1ccc2c(c1OC)C(=O)O[C@@H]2[C@H]1c2cc3c(cc2CCN1C)OCO3 [1s,9r-hydrastine]
- Viability [1, 12]: 0.650
- cyt c [2, 12]: 0.359
- nucOX [3, 12]: −0.041
- MTT [4, 12]: −0.539
- mitoOX [5, 12]: −0.341
- ROS [6, 12]: −0.029
- ΔΨm [7]: −0.849
- GE-HTS [8, 12]: −0.152

Compound: CC(C)C[C@H](NC(=O)CN)C(=O)N[C@@H](Cc1ccccc1)C(=O)O [glycylleucylphenylalanine] (H-Gly-Leu-Phe-OH)
- Viability [1, 12]: −0.254
- cyt c [2, 12]: −0.182
- nucOX [3, 12]: 0.033
- MTT [4, 12]: −0.344
- mitoOX [5, 12]: −0.322
- ROS [6, 12]: 0.973
- ΔΨm [7, 12]: −0.774
- GE-HTS [8, 12]: −0.095

Compound: COC(=O)c1c(C)cc(O)cc1O [methyl orsellinate]
- Viability [1, 12]: −0.008
- cyt c [2, 12]: 0.573
- nucOX [3, 12]: −1.000
- MTT [4, 12]: 0.148
- mitoOX [5, 12]: −1.146
- ROS [6, 12]: 1.212
- ΔΨm [7, 12]: −0.632
- GE-HTS [8, 12]: −1.129

Compound: COc1c2occc2cc2ccc(=O)oc12 [methoxsalen]
- Viability [1, 13]: 0.416
- cyt c [2, 13]: −0.889
- nucOX [3, 13]: −0.513
- MTT [4, 13]: −0.976
- mitoOX [5, 13]: −0.489
- ROS [6, 13]: 0.310
- ΔΨm [7, 13]: −0.034
- GE-HTS [8, 13]: −0.562
